Values quoted from earlier work in patent publication US6465194B2, “Monoclonal antibodies to 4,4′-dinitrocarbanilide and a method for analyzing for the drug nicarbazin” (The United States of America as represented by the …, priority 1999, dated 2002).

Tests used:
Eimeria tenella = settings: Cuckler et al., 1955
[1] = chickens; Porter and Gilfilan, 1955

Cc1cc(C)nc(O)n1 [HDP, 2-hydroxy-4,6-dimethylpyrimidine]
anticoccidial activity (Eimeria tenella; used alone): no anticoccidial activity

O=C(Nc1ccc([N+](=O)[O-])cc1)Nc1ccc([N+](=O)[O-])cc1 [DNC, 4,4′-dinitrocarbanilide]
excretion rate [1]: more slowly than HDP

Cc1cc(C)nc(O)n1.O=C(Nc1ccc([N+](=O)[O-])cc1)Nc1ccc([N+](=O)[O-])cc1 [DNC-HDP]
potency in the control of Eimeria tenella relative to DNC by itself (Eimeria tenella; complex versus DNC alone): ten
